We go through three compounds from article PMC11434129, “Mechanistic Insights from the Crystal Structure and Computational Analysis of the Radical SAM Deaminase DesII” (Advanced Science, 2024).

Assay [1] deals with T1, DesII (Streptomyces venezuelae, UniProt Q9ZGH1).
T1 construct: C-terminal His6-tag kept; selenomethionine derivative used for phasing; [Fe4S4] cluster; N-terminal 7-9 residues disordered in crystal
Put plainly: X-ray crystal structure, […] Å. It counts as binding.

Assay [2] concerns the target T2, DesII (Streptomyces venezuelae, UniProt Q9ZGH1, E408Q).
T2 construct: C-terminal His6-tag kept; selenomethionine derivative used for phasing; [Fe4S4] cluster; N-terminal 7-9 residues disordered in crystal
Put plainly: deaminase activity assay. It counts as biochemical. Particulars: deamination.

Assay [3] addresses T1, DesII. Put plainly: deaminase activity assay. Particulars: deamination. It counts as biochemical.
Assay [4] concerns the target T3, DesII (Streptomyces venezuelae, UniProt Q9ZGH1, E408A).
T3 construct: C-terminal His6-tag kept; selenomethionine derivative used for phasing; [Fe4S4] cluster; N-terminal 7-9 residues disordered in crystal
As to the kind of experiment: deaminase activity assay. It counts as biochemical. The following applies: deamination.

Assay [5] has as its target T4, DesII (second DesII expression construct) (Streptomyces venezuelae, UniProt Q9ZGH1).
T4 construct: pSJ5 vector, TrxA fusion, His8-tag and TEV site; N-terminal tag removed by TEV; [Fe4S4] cluster; loop D323-E337 disordered
T4 sequence (Q9ZGH1 1-485): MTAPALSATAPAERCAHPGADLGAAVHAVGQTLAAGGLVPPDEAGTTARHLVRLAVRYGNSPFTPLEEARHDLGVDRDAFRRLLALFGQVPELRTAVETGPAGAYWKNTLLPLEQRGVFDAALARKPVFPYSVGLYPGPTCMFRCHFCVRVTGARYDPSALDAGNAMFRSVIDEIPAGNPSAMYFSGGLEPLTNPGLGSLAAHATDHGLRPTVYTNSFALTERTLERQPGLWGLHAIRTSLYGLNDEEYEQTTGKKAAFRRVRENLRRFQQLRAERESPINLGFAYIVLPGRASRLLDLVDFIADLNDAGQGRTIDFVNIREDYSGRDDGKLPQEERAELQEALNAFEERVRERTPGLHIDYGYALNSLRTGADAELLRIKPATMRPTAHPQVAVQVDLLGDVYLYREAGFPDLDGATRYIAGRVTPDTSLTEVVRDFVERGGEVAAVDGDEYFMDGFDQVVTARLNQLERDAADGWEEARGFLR
As to the kind of experiment: X-ray crystal structure, […] Å. It counts as binding. The following applies: coordinates fourth iron of [Fe4S4] cluster in one monomer; pH 6.0 crystals.

T2 sequence (Q9ZGH1 whole entry E408Q, the tested form may be a part): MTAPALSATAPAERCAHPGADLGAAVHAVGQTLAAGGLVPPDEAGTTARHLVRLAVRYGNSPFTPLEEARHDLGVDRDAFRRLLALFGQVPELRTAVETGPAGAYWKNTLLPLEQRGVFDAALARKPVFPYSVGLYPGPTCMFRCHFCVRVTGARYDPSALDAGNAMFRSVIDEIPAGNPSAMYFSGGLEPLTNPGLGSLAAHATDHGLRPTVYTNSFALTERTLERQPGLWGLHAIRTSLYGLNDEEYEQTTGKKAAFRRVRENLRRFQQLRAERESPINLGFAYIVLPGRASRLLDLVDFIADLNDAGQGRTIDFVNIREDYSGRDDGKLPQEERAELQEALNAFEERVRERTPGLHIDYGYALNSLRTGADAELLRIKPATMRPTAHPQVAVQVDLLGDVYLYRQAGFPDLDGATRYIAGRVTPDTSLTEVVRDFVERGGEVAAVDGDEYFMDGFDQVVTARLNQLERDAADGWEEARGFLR
T3 sequence (Q9ZGH1 whole entry E408A, the tested form may be a part): as the sequence (Q9ZGH1 whole entry E408Q, the tested form may be a part) above, with Q408A counted along it

In the case of `C[S+](CC[C@H](N)C(=O)O)C[C@H]1O[C@@H](n2cnc3c(N)ncnc32)[C@H](O)[C@@H]1O` (stereo partly drawn) [SAM, S-adenosyl-L-methionine], the “X-ray crystal structure, 2.33 Å” value at DesII [1] (coordinated to [Fe4S4] cluster, chains a and c) is “A single molecule of SAM was found coordinated to the [Fe4S4] cluster in chains a”.

`Cc1cn([C@H]2C[C@H](O)[C@@H](COP(=O)(O)OP(=O)(O)O[C@H]3O[C@H](C)[C@@H](N)[C@H](O)[C@H]3O)O2)c(=O)[nH]c1=O` [compound 1, TDP-4-amino-4,6-dideoxy-D-glucose]: the deaminase activity assay result was “E408A and E408Q mutants were both constructed and found to retain deaminase activity” on DesII [2]; “found to retain deaminase activity comparable to that of wildtype enzyme” on DesII [3]; “E408A and E408Q mutants were both constructed and found to retain deaminase activity” at DesII [4].

On to `CSCC[C@H](N)C(=O)O` [Met, methionine], for which the “X-ray crystal structure, 2.04 Å” value in assay [5] is “coordinated with a water molecule and the other with methionine”. In addition, the “X-ray crystal structure, 2.33 Å” value at DesII [1] (active sites of chains b and d) is “with methionine bound in the active sites of chains b and d”.
